The source of these data is patent US5753679A, “Benzyl-piperidine derivatives” (priority 1995, dated 1998).

Each structure is given as a SMILES string. Like-named read-outs stand apart in the source and are kept apart here.

As a reminder, the Ki is the equilibrium dissociation constant of an inhibitor or competing ligand from its target.

This assay concerns the target T1, dopamine D4 receptor (Homo sapiens, UniProt P21917).
T1 construct: expressed in transfected cells; host or cells: CHO (Chinese Hamster Ovary) cells, D4-CHO, crude membranes
T1 sequence (P21917 1-419): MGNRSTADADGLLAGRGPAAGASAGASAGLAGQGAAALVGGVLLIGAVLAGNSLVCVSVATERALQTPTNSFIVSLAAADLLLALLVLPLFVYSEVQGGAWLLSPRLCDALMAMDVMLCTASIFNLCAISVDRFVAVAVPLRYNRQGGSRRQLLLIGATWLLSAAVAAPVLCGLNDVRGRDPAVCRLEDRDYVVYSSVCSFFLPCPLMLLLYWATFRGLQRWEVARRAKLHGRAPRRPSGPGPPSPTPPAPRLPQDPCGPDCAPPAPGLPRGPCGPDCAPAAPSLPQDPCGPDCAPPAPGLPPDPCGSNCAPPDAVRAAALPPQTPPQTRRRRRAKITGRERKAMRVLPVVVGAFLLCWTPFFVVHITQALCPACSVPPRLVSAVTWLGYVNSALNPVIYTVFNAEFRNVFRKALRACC
Briefly: Binding to the D4 receptor, [3H]-spiperone displacement, D4-CHO membranes. As for the experimental part:
The compounds were characterized by a comparison in binding behaviour to the D4 receptor and to the D2 receptor. CHO cells (Chinese Hamster Ovary) were used in the test. Crude membranes were isolated from D4 --CHO and D2 --CHO cells by ultracentrifugation and were stored at -80° C. After thawing and homogenization in a buffer solution (50 mM Tris, 1 mM EDTA, 5 mM KCI, 1.5 mM CaCI2, 4 mM MgCI2, pH 7.4) they were incubated at room temperature for 90 minutes with 200 pM [^3 H]-spiperone and increasing concentrations (1×10^-11 M to 1×10^-4 M) of the test compound. A non-specific binding by the incubation was established in the presence of 1×10^-5 M (+)-butaclamol.
The unbound radioligand was removed by filtration through a GFIC glass filter and the bound radioactivity was determined by flash emission in a Packard Top Count.
It was determined using ^3 H-spiperone. The calculation of the value was effected with a ligand.

Where [1] appears, read: [3H]-spiperone 200 pM, D4-CHO crude membranes, room temperature, 90 minutes, pH 7.4, read-out: Ki at D4.

Turning to `Nc1ccccc1C(=O)OC1CCN(Cc2ccccc2)CC1` [A/5a, 1-Benzyl-piperidin-4-yl 2-amino-benzoate], affinity was put at a Ki of 4 nM.

On to `Nc1ccc(C(=O)OC2CCN(Cc3ccccc3)CC2)nc1` [B/8b, 1-benzyl-piperidin-4-yl 5-amino-picolinate], for which the Ki under setting [1] is 16.4 nM.

For `O=C(OC1CCN(Cc2ccccc2)CC1)c1ccc(Br)cc1` [C/19b, 1-Benzyl-piperidin-4-yl 4-bromo-benzoate], the Ki under setting [1] was 10 nM.

As to `O=C(OC1CCN(Cc2ccccc2)CC1)c1ccc(I)cc1` [D/22a, 1-Benzyl-piperidin-4-yl 4-iodo-benzoate], under setting [1], the Ki stood at 15 nM.

As for `Cc1ccccc1C(=O)OC1CCN(Cc2ccccc2)CC1` [E/24a, 1-Benzyl-piperidin-4-yl 2-methyl-benzoate], under setting [1], the Ki is 6 nM.

On to `Cc1ccc(C(=O)OC2CCN(Cc3ccccc3)CC2)cc1` [F/25a, 1-Benzyl-piperidin-4-yl 4-methyl-benzoate], for which, under setting [1], the Ki was 8 nM.

Consider `CNc1ccc(C(=O)OC2CCN(Cc3ccccc3)CC2)cc1` [G/32b, 1-Benzyl-piperidin-4-yl 4-methylamino-benzoate], for which the Ki under setting [1] worked out at 5 nM.

Turning to `O=C(OC1CCN(Cc2ccc(Cl)cc2)CC1)c1ccccc1` [H/58c, 1-(4-Chloro-benzyl)-piperidin-4-yl benzoate], under setting [1], the Ki came out at 7.3 nM.

Take `Cc1ccc(C(=O)OC2CCN(Cc3ccc(Cl)cc3)CC2)cc1` [I/59a, 1-(4-Chloro-benzyl)-piperidin-4-yl 4-methyl-benzoate]: the Ki under setting [1] stood at 15 nM.

As to `O=C(OC1CCN(Cc2ccc(Cl)cc2)CC1)c1ccc(Cl)cc1` [J/82a, 1-(4-Chloro-benzyl)-piperidin-4-yl 4-chloro-benzoate], the Ki under setting [1] was 18 nM.

Regarding `Cc1ccc(CN2CCC(OC(=O)c3ccc(C)cc3)CC2)cc1` [L/79a, 1-(4-Methyl-benzyl)-piperidin-4-yl 4-methyl-benzoate], the Ki under setting [1] was 5.2 nM.

As to `O=C(OC1CCN(Cc2cccc([N+](=O)[O-])c2)CC1)c1ccccc1` [M/70b, 1-(3-Nitro-benzyl)-piperidin-4-yl benzoate], the Ki under setting [1] came out at 13 nM.

On to `Cc1ccc(C(=O)OC2CCN(Cc3ccccc3)CC2)c(C)c1` [N/46a, 1-benzyl-piperidin-4-yl 2,4-dimethyl-benzoate], for which, under setting [1], the Ki worked out at 9 nM.

As for `O=C(OC1CCN(Cc2ccc(F)cc2)CC1)c1ccccc1` [O/64b, 1-(4-Fluoro-benzyl)-piperidin-4-yl benzoate], the Ki under setting [1] turned out to be 18 nM.

As to `Cc1ccc(C(=O)OC2CCN(Cc3cccc([N+](=O)[O-])c3)CC2)cc1` [P/71a, 1-(3-Nitro-benzyl)-piperidin-4-yl 4-methyl-benzoate], the Ki under setting [1] worked out at 19 nM.

Turning to `Cc1ccc(C(=O)OC2CCN(Cc3cccc(N)c3)CC2)cc1` [Q/73a, 1-(3-Amino-benzyl)-piperidin-4-yl 4-methyl-benzoate], the Ki under setting [1] was found to be 19 nM.

`Cc1ccc(C(=O)OC2CCN(Cc3ccccc3N)CC2)cc1` [R/69a, 1-(2-Amino-benzyl)-piperidin-4-yl 4-methyl-benzoate]: under setting [1], the Ki was found to be 17.5 nM.

Regarding `COc1ccc(CN2CCC(OC(=O)c3ccccc3)CC2)cc1` [S/80c, 1-(4-Methoxy-benzyl)-piperidin-4-yl benzoate], the Ki under setting [1] was determined as 15 nM.

For the molecule `Cc1ccc(CN2CCC(OC(=O)c3ccccc3)CC2)cc1` [k/78b, 1-(4-Methyl-benzyl)-piperidin-4-yl benzoate], the Ki under setting [1] came out at 3.8 nM.
